Results reported in patent US11072601B2, “μ-opioid receptor agonist and preparation method therefor and use thereof in field of medicine” (SHANGHAI SYNERGY PHARMACEUTICAL SCIENCES CO., LTD., priority 2017, dated 2021).

Tests used:
[1] = target: T1, cAMP pathway of MOR receptor (Homo sapiens, UniProt P35372); test: cell-based; conditions: cAMP Hunter HEK293 cells, forskolin-induced cAMP; read-out: EC50 of cAMP levels affected by agonistic effect on MOR
T1 construct: host or cells: HEK293 (cAMP Hunter cell line)

[2] = target: T2, β-arrestin signaling pathway of MOR (Homo sapiens, UniProt P35372); test: cell-based; conditions: PathHunter HEK293 cells, relative to endorphin MAX control
T2 construct: host or cells: HEK293 (PathHunter cell line)

[3] = tested on: rat surgical incision injury model; test: Rat surgical incision injury model, von Frey paw withdrawal threshold; assay type: in vivo, SD rats; conditions: rats, intravenous 0.3 mg/kg
From the text: 8-week-old male SD rats weighing 200 g-300 g were used as experimental animals to determine the effect of the compound of Example H02, the compound of Example H04, the compound of Example H10, the compound of Example H16, the compound of Example H17, the compound of Example H18, the compound of Example H21 and the compound of Example H24 on surgical pain in rats after intravenous administration. The analgesic effect of the compounds was discussed.
A certain amount of the compounds or TRV130 (MCE, 15150) was weighed, and dissolved in ethanol/castor oil/water=10/10/80 as a clear and transparent solution.
Three days after the rats were acclimatized to the experimental environment, the preoperative base value was determined, and followed by the surgical pain operation described below, about 24 hours after the surgery, the basic value was measured before administration on all animals, and mechanically hypersensitive animals (the paw withdrawal threshold (PWT) was less than 5 g) was randomly assigned to each administration group according to PWT. The pain threshold was determined 30 minutes and 60 minutes after intravenous administration of the positive drug TRV130 or each compound of the present invention (at a dose of 0.3 mg/kg).
The surgical procedure was performed aseptically, and the surgical instruments (scissors, tweezers, scalpels, surgical cotton and sutures) were sterilized before surgery. The animals were anesthetized with sodium pentobarbital (50 mg/kg, injected intraperitoneally), and the toes of the animals were squeezed to confirm that the animals were completely anesthetized before surgery. From the position of 0.5 cm away from the heel, an incision about 1 cm was made in the longitudinal direction of the toe. After cutting the skin, the musculus flexor digitorum brevis was raised and a blunt injury was caused longitudinally. After pressing to stop bleeding, the wound was sutured. When the animal was completely awake (free to move), the animal was put back into the cage (the reference of the construction of surgical pain model: Timothy J. Brennan, Erik P. Vandermeulen, G. F. Gebhart. Characterization of a rat model of incisional pain. Pain, 64(1996):493-501).
An up-down method was used for the determination of pain sensitivity. The mechanical pain results were expressed as animal paw withdrawal response threshold (PWT). The rat was placed separately in a plexiglass box with a mesh at the bottom of the box to ensure that the rat's feet could be tested. The rat was acclimatized for 15 minutes before the test, and after the acclimatization, the test fiber (von frey fiber, West coast) was used to test in the middle part of the hind foot of the rat. The test fibers included 8 test strengths: 3.61 (0.4 g), 3.84 (0.6 g), 4.08 (1 g), 4.31 (2 g), 4.56 (4 g), 4.74 (6 g), 4.93 (8 g), and 5.18 (15 g). During the test, the test fiber was pressed vertically against the skin and a force was applied to bend the fiber for 6-8 seconds, at an interval of 5 seconds between each test. During the test, the animal's rapid withdrawal was recorded as a pain response. When the test fiber left the animal's skin, the animal's withdrawal was also recorded as a pain response. Starting from 2 g, depending on whether the rats had any pain response, the test was changed into the next test intensity or the previous test intensity. A series of responses of the rats to different test intensities were recorded. […] Wherein, Xf was the logarithmic value of von Frey fiber used in the last test, and K value was the animal withdrawal reaction mode (recorded during the test), which was the value obtained after looking up the table according to the obtained sequence of “X” and “O”, δ=Mean of logarithmic difference between von Frey fibers used in the test.

T2 sequence (P35372 whole entry): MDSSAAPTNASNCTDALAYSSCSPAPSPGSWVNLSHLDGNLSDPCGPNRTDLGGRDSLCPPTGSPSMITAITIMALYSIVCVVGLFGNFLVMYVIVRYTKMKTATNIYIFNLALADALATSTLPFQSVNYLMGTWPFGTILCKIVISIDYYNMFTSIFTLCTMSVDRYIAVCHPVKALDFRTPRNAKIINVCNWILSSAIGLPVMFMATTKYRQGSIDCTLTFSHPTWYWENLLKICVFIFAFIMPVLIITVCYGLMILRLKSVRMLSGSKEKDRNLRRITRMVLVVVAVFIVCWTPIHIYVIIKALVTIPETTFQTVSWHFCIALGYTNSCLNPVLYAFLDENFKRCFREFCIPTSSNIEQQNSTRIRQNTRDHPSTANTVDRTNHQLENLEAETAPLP
T1 sequence (P35372 whole entry): as above

| Structure (SMILES) | EC50 [1] [nM] | Emax [2] [%] | 50% PWT, 30 min after administration [3] [g] | 50% PWT, 60 min after administration [3] [g] |
| --- | --- | --- | --- | --- |
| FC(F)Oc1ccccc1CNCCC1(c2ccccn2)CCOC2(CCCC2)C1 (stereo not drawn) [Example H16, (2-difluoromethoxybenzyl)-[2-(9-(pyridin-2-yl)-6-oxaspiro[4.5]decan-9-yl)ethyl]amine] | 1.36 | 3.12 | 13.72 ± 0.56 | 10.29 ± 1.06 |
| FC(F)(F)Oc1ccc(Cl)cc1CNCCC1(c2ccccn2)CCOC2(CCCC2)C1 (stereo not drawn) [Example H17, (5-chloro-2-trifluoromethoxybenzyl)-[2-(9-(pyridin-2-yl)-6-oxaspiro[4.5]decan-9-yl)ethyl]amine] | 1.89 | 1.78 | 8.85 ± 1.59 | 7.91 ± 1.43 |
| CNc1ccsc1C(=O)NCCC1(c2ccccn2)CCOC2(CCCC2)C1 (stereo not drawn) [Example H24, 3-methylamino-thiophene-2-carboxylic acid [2-(9-pyridin-2-yl-6-oxa-spiro[4.5]decan-9-yl)-ethyl]-amide] | 3.74 | 2.76 | 11.32 ± 2.35 | 7.29 ± 1.23 |
| Cc1c(Cl)cccc1CNCCC1(c2ccccn2)CCOC2(CCCC2)C1 (stereo not drawn) [Example H04, (3-chloro-2-methylbenzyl)-[2-(9-(pyridin-2-yl)-6-oxaspiro[4.5]decan-9-yl)ethyl]amine] | 4.36 | 6.12 | 11.72 ± 0.56 | 8.29 ± 1.06 |
| FC(F)Oc1ccsc1CNCCC1(c2ccccn2)CCOC2(CCCC2)C1 (stereo not drawn) [Example H18, ((3-difluoromethoxythiophen-2-yl)methyl)-[2-(9-(pyridin-2-yl)-6-oxaspiro[4.5]decan-9-yl)ethyl]a mine] | 2.35 | 0.48 | 7.85 ± 0.54 | 6.91 ± 0.33 |
| Fc1ccc(C2(CCNCc3ccccc3OC(F)(F)F)CCOC3(CCCC3)C2)nc1 (stereo not drawn) [Example H21, {2-[9-(5-fluoro-pyridin-2-yl)-6-oxa-spiro[4.5]decan-9-yl]-ethyl}-(2-(trifluoromethoxy)-phenmethyl)-amine] | 2.57 | 0.08 | 10.72 ± 2.56 | 8.29 ± 1.06 |
